Experimental findings from US12606635B2, “Glypican-2-binding moieties, chimeric antigen receptors and uses thereof” (Nanjing Legend Biotech Co., Ltd., priority 2020, dated 2026) are described below.

The test system of one series is SH-SY5Y cells. As to the kind of experiment: Cytotoxicity of CAR T cells in presence of Compound A gradient. Type of series: cell-based, human. As to conditions: 0.04-30 μM Compound A, E:T 0.2:1, 20 hours, FIG. 10. As for the experimental part:
To evaluate if Compound A influence to the cytotoxicity of CAR T against tumor cell, Compound A (CAS Number:191732-72-6, Sigma-Aldrich, St. Louis) stock was serially diluted to final concentration of 30, 10, 3.33, 1.11, 0.37, 0.12 and 0.04 μM using complete growth medium. In the presence of Compound A gradient, CAR T cells were co-incubated with tumor cells at an effector (CAR T) to target cell ratio of 0.2:1 for 20 hours. CAR T cells and tumor cells co-cultured without addition of Compound A served as a control. Cytotoxicity of CAR T cells on tumor cells was estimated using the Cytotoxicity Detection Kit (LDH) (Roche, #11644793001) as described in Example 6.

A further series has as its system SH-SY5Y tumor cells. As to the kind of experiment: In vitro repetitive challenge assay with Compound A. Type of series: cell-based, human. Here is the method: To evaluate the effect of 3-(4-amino-1-oxo-1,3 dihydro-2H-isoindol-2-yl)piperidine-2,6-dione (Compound A) on CAR T cell recursive killing potential, T cell expansion and survival, an in vitro repetitive challenge assay was employed. Exemplary CAS70950VH6-BBz CAR T cells on day 11 post-transduction were co-cultured with SH-SY5Y tumor cells at an effector (CAR T) to target cell ratio of 1:2. The co-culture media was supplemented with 10 μM Compound A throughout this study. CAR T cells were re-challenged with tumor cells every 3 days (round 1, round 2, round 3 and round 4). CAR T cells and tumor cells co-cultured without addition of Compound A was used as a control. The percentages of CD3^+ T cells, percentages of CD3^+CAR^+ T cells were analyzed by flow cytometer. The amount of IFNγ in the co-culture supernatant was quantified using HTRF human IFNγ AlphaLISA kit (Perkin Elmer, #62HIFNGPEH) as described in Example 6.

For series [1], the system named is neuroblastoma SH-SY5Y xenograft. As to conditions: mouse, in vivo.
For series [2] the test system is unchanged. Briefly: In vivo combination of Compound A and CAR T cells in SH-SY5Y xenograft. Particulars: FIG. 12A.

Molecules are shown by their SMILES.

For `Nc1cccc2c1CN(C1CCC(=O)NC1=O)C2=O` (stereo not shown) [Compound A, 3-(4-amino-1-oxo-1,3 dihydro-2H-isoindol-2-yl)piperidine-2,6-dione], in the series with SH-SY5Y cells, the “effect of Compound A on cytotoxicity of CAS70950VH6-BBz CAR T cells against SH-SY5Y” value is “not impaired”. Besides, in the series on SH-SY5Y tumor cells (10 μM Compound A), the “IFNγ released from CAS70950VH6-BBz CAR T cells compared to non-treated CAR T cells” value is listed as “higher amount of IFNγ”. For the same compound, the “CD3+CAR+ T cells survival and expansion after repetitive tumor challenges” value in the series with SH-SY5Y tumor cells (CAS70950VH6-BBz CAR T cells with 10 μM Compound A, FIG. 11A-11B) was “promoted CD3^+CAR^+ T cells survival and expansion”. Moreover, the “effector activity of CAS70950VH6-BBz CAR T cells after repetitive tumor challenges” value with SH-SY5Y tumor cells (supplemented with 10 μM Compound A, FIG. 11A-11B) was “maintained their effector activity”. Moreover, the “promotion of CAR+ T cells expansion by Compound A co-administration” value in series [1] is given as “about 6 fold”. For the same compound, the “tumor regression, Compound A in combination with CAS70950VH6-BBz CAR-T cells” value in series [2] (Compound A 7.5 mg/kg i.p. 21 days plus 1.5×10^6 CAR+ T cells) is reported as “more pronounced tumor regression”. In series [2] (twelve days after treatment, CAR T 1.5×10^6 i.v. or Compound A 7.5 mg/kg i.p. for 21 days), the “tumor growth, single treatment” value was “did not achieve any tumor suppression”.
